Measurements taken from patent US11813306B2, “Cyclic tetramer compounds as proprotein convertase subtilisin/kexin type 9 (PCSK9) inhibitors for the treatment of metabolic disorders” (NOVARTIS AG, priority 2018, dated 2023).

Molecular target: human PCSK9 (Homo sapiens, UniProt Q8NBP7)
Test: PCSK9 ligand binding assay (TR-FRET): interference with binding of human PCSK9 to human LDLR
Details: for IC50: Human PCSK9 Alexa Fluor 647 / Human LDLR extracellular domain-Europium Kryptate; for Max % inhibition: efficacy (Amax), 100% = 1 uM unlabeled human PCSK9, 0% = DMSO
In short: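 Read-out was TR-FRET ratio (665 nm over 615 nm, 330 nm excitation) between Alexa Fluor 647-human PCSK9 (16 nM added) and Europium Kryptate-human LDLR ectodomain (4 nM added). Compound and PCSK9 were mixed 30 min before LDLR, then incubated 2 h. Inhibition was normalised to DMSO and unlabelled-PCSK9 controls, giving IC50 and Amax.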

Sequence of human PCSK9 (Q8NBP7 153-692): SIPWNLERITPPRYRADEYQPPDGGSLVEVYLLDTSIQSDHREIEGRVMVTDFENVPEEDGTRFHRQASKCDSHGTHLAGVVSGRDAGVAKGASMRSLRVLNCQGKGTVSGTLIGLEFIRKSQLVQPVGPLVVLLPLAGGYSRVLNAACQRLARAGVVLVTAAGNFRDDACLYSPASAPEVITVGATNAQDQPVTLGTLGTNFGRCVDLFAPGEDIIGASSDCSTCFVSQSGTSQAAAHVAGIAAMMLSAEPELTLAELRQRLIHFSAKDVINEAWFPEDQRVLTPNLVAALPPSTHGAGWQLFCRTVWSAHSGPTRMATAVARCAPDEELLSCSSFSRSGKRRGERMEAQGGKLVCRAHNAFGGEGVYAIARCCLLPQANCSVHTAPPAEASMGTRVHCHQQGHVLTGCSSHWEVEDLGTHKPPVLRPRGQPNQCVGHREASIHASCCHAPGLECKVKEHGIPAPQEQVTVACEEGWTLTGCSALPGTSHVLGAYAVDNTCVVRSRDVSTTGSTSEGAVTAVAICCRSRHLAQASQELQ
Sequence of human PCSK9 (Q8NBP7 31-152 partner limits assumed): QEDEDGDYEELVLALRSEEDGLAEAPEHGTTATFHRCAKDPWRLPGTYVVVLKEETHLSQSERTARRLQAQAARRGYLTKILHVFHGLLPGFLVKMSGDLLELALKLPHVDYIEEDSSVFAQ

Row | IC50 | Max % inhibition | Structure (SMILES)
1 | 0.152 nM | 115.5% | C[C@H]1C(=O)N[C@@H](CO)C(=O)N[C@@]2(Cc3ccc(Cl)cc3)CCCN(C2)C(=O)[C@H](CC2CC2)CC(=O)N1Cc1c(F)cc(Cl)cc1Oc1ccc(-c2cnc(CN3CCCC3)n2C)cc1 [Compound 10, (3R, 7S, 10S, 13R)-6-(4-chloro-2-fluoro-6-(4-(1-methyl-2-(pyrrolidin-1-ylmethyl)-1H-imidazol-5-yl)phenoxy)benzyl)-13-(4-chlorobenzyl)-3-(cyclopropylmethyl)-10-(hydroxymethyl)-7-methyl-1,6,9,12-tetraazabicyclo[11.3.1]heptadecane-2,5,8,11-tetraone]
2 | 1.88 nM | 102.5% | COC[C@@H]1NC(=O)[C@H](C)N(Cc2ccc(Cl)cc2Oc2ccc(-c3cnc(CN(C)C)n3C)cc2)C(=O)C[C@@H]([C@@H]2CCc3ccccc32)C(=O)N2CCC[C@@](Cc3ccc(Cl)cc3)(C2)NC1=O.Cl [Compound 95, (3S, 7S, 10S, 13R)-6-(4-chloro-2-(4-(2-((dimethylamino)methyl)-1-methyl-1H-imidazol-5-yl)phenoxy)benzyl)-13-(4-chlorobenzyl)-3-((S)-2,3-dihydro-1H-inden-1-yl)-10-(methoxymethyl)-7-methyl-1,6,9,12-tetraazabicyclo[11.3.1]heptadecane-2,5,8,11-tetraone]
3 | 0.96 nM | 110.3% | COC[C@@H]1NC(=O)[C@H](C)N(Cc2c(F)cc(Cl)cc2Oc2ccc(-c3cnc(CN(C)C)n3C)cc2)C(=O)C[C@@H](CC(C)(F)F)C(=O)N2CCC[C@@](Cc3ccc(Cl)cc3)(C2)N(C)C1=O [Compound 158, (3S, 7S, 10S, 13R)-6-(4-chloro-2-(4-(2-((dimethylamino)methyl)-1-methyl-1H-imidazol-5-yl)phenoxy)-6-fluorobenzyl)-13-(4-chlorobenzyl)-3-(2,2-difluoropropyl)-10-(methoxymethyl)-7,12-dimethyl-1,6,9,12-tetraazabicyclo[11.3.1]heptadecane-2,5,8,11-tetraone]
4 | 3.16 nM | 99.0% | CCn1c(-c2ccc(Oc3cc(Cl)cc(F)c3CN3C(=O)C[C@@H](CC(F)(F)F)C(=O)N4CCC[C@@](Cc5ccc(Cl)cc5)(C4)NC(=O)[C@H](CO)NC(=O)[C@@H]3C)cc2)cnc1CN(C)C [Compound 88, (3S, 7S, 10S, 13R)-6-(4-chloro-2-(4-(2-((dimethylamino)methyl)-1-ethyl-1H-imidazol-5-yl)phenoxy)-6-fluorobenzyl)-13-(4-chlorobenzyl)-10-(hydroxymethyl)-7-methyl-3-(2,2,2-trifluoroethyl)-1,6,9,12-tetraazabicyclo[11.3.1]heptadecane-2,5,8,11-tetraone]
5 | 631 nM | 91.3% | C[C@H]1C(=O)N[C@@H](CC(=O)O)C(=O)N(C)[C@H](Cc2ccc(Cl)cc2)CN(C)C(=O)[C@H](Cc2ccccc2)CC(=O)N1Cc1ccc(Cl)cc1Oc1ccc(-c2cnc(CN3CCCC3)n2C)cc1.Cl [Compound 135, 2-((2S, 5S, 8R, 12R)-12-benzyl-1-(4-chloro-2-(4-(1-methyl-2-(pyrrolidin-1-ylmethyl)-1H-imidazol-5-yl)phenoxy)benzyl)-8-(4-chlorobenzyl)-2,7,10-trimethyl-3,6,11,14-tetraoxo-1,4,7,10-tetraazacyclotetradecan-5-yl)acetic acid]
6 | 250 nM | 89.8% | CC[C@@H]1CC(=O)N(Cc2ccc(Cl)cc2Oc2ccc(-c3cnc(CN4CCCC4)n3C)cc2)[C@@H](C)C(=O)N[C@@H](CO)C(=O)N(C)[C@H](Cc2ccc(Cl)cc2)CN(C)C1=O.Cl [Compound 128, (2S, 5S, 8R, 12R)-1-(4-chloro-2-(4-(1-methyl-2-(pyrrolidin-1-ylmethyl)-1H-imidazol-5-yl)phenoxy)benzyl)-8-(4-chlorobenzyl)-12-ethyl-5-(hydroxymethyl)-2,7,10-trimethyl-1,4,7, 10-tetraazacyclotetradecane-3,6,11,114-tetraone]
7 | 0.568 nM | 112.3% | C[C@H]1C(=O)N[C@@H](CO)C(=O)N[C@@]2(Cc3ccc(Cl)cc3)CCCN(C2)C(=O)[C@H](Cc2c(F)cc(F)cc2F)CC(=O)N1Cc1ccc(Cl)cc1Oc1ccc(-c2cnc(CN(C)C)n2C)cc1 [Compound 46, (3R, 7S, 10S, 13R)-6-(4-chloro-2-(4-(2-((dimethylamino)methyl)-1-methyl-1H-imidazol-5-yl)phenoxy)benzyl)-13-(4-chlorobenzyl)-10-(hydroxymethyl)-7-methyl-3-(2,4,6-trifluorobenzyl)-1,6,9,12-tetraazabicyclo[11.3.1]heptadecane-2,5,8,11-tetraone]
8 | 0.57 nM | 104.8% | CNCc1ncc(-c2ccc(Oc3cc(Cl)cc(F)c3CN3C(=O)C[C@@H](CC(F)(F)F)C(=O)N4CCC[C@@](Cc5ccc(Cl)cc5)(C4)N(C)C(=O)[C@H](COC)NC(=O)[C@@H]3C)cc2)n1C [Compound 172, (3S, 7S, 10S, 13R)-6-(4-chloro-2-fluoro-6-(4-(1-methyl-2-((methylamino)methyl)-1H-imidazol-5-yl)phenoxy)benzyl)-13-(4-chlorobenzyl)-10-(methoxymethyl)-7,12-dimethyl-3-(2,2,2-trifluoroethyl)-1,6,9,12-tetraazabicyclo[11.3.1]heptadecane-2,5,8,11-tetraone]
9 | 0.631 nM | 102.2% | C[C@H]1C(=O)N[C@@H](CO)C(=O)N[C@@]2(Cc3ccc(Cl)cc3)CCCN(C2)C(=O)[C@H]([C@@H]2CCc3ccccc32)CC(=O)N1Cc1c(F)cc(Cl)cc1Oc1ccc(-c2cnc(CN(C)C)n2C)cc1 [Compound 49, (3S, 7S, 10S, 13R)-6-(4-chloro-2-(4-(2-((dimethylamino)methyl)-1-methyl-1H-imidazol-5-yl)phenoxy)-6-fluorobenzyl)-13-(4-chlorobenzyl)-3-((S)-2,3-dihydro-1H-inden-1-yl)-10-(hydroxymethyl)-7-methyl-1,6,9,12-tetraazabicyclo[11.3.1]heptadecane-2,5,8,11-tetraone]
10 | 7.83 nM | 105.6% | C[C@@H](c1ccccc1)[C@@H]1CC(=O)N(Cc2ccc(Cl)cc2Oc2ccc(-c3cnc(CN4CCCC4)n3C)cc2)[C@@H](C)C(=O)N[C@@H](CO)C(=O)N(C)[C@H](Cc2ccc(Cl)cc2)CN(C)C1=O.Cl [Compound 107, (2S, 5S, 8R, 12S)-1-(4-chloro-2-(4-(1-methyl-2-(pyrrolidin-1-ylmethyl)-1H-imidazol-5-yl)phenoxy)benzyl)-8-(4-chlorobenzyl)-5-(hydroxymethyl)-2,7,10-trimethyl-12-((R)-1-phenylethyl)-1,4,7,10-tetraazacyclotetradecane-3,6,11,14-tetraone]
11 | 1.68 nM | 101.9% | C[C@H]1C(=O)N[C@@H](CO)C(=O)N[C@@]2(Cc3ccc(Cl)cc3)CCCN(C2)C(=O)[C@H]([C@@H]2CCc3ccccc32)CC(=O)N1Cc1ccc(Cl)cc1Oc1ccc(-c2cnc(CN(C)C)n2C)cc1.Cl [Compound 84, (3S, 7S, 10S, 13R)-6-(4-chloro-2-(4-(2-((dimethylamino)methyl)-1-methyl-1H-imidazol-5-yl)phenoxy)benzyl)-13-(4-chlorobenzyl)-3-((S)-2,3-dihydro-1H-inden-1-yl)-10-(hydroxymethyl)-7-methyl-1,6,9,12-tetraazabicyclo[11.3.1]heptadecane-2,5,8,11-tetraone]
12 | 1.18 nM | 105.2% | COC[C@@H]1NC(=O)[C@H](C)N(Cc2ccc(Cl)cc2Oc2ccc(-c3cnc(CN(C)C)n3C)cc2)C(=O)C[C@@H](Cc2cccc(=O)n2C)C(=O)N2CCC[C@@](Cc3ccc(Cl)cc3)(C2)NC1=O [Compound 44]
13 | 1.94 nM | 98.3% | COC[C@@H]1NC(=O)[C@H](C)N(Cc2ccc(Cl)cc2Oc2ccc(-c3cnc(CN4CCCC4)n3C)cc2)C(=O)C[C@@H]([C@H]2CCc3ccccc32)C(=O)N(C)C[C@@H](Cc2ccc(Cl)cc2)N(C)C1=O.Cl [Compound 101, (2S, 5S, 8R, 12S)-1-(4-chloro-2-(4-(1-methyl-2-(pyrrolidin-1-ylmethyl)-1H-imidazol-5-yl)phenoxy)benzyl)-8-(4-chlorobenzyl)-12-((R)-2,3-dihydro-1H-inden-1-yl)-5-(methoxymethyl)-2,7,10-trimethyl-1,4,7,10-tetraazacyclotetradecane-3,6,11,14-tetraone]
14 | 94.3 nM | 96.9% | COC[C@H]1NC(=O)[C@H](C)N(Cc2ccc(Cl)cc2Oc2ccc(-c3cnc(CN(C)C)n3C)nc2)C(=O)C[C@@H](Cc2ccccc2)C(=O)N2CCC[C@@](Cc3ccc(Cl)cc3)(C2)NC1=O [Compound 122, (3R, 7S, 10R, 13R)-3-benzyl-6-(4-chloro-2-((6-(2-((dimethylamino)methyl)-1-methyl-1H-imidazol-5-yl)pyridin-3-yl)oxy)benzyl)-13-(4-chlorobenzyl)-10-(methoxymethyl)-7-methyl-1,6,9,12-tetraazabicyclo[11.3.1]heptadecane-2,5,8,11-tetraone]
15 | 9.32 nM | 104.6% | C[C@H]1C(=O)N[C@@H](CO)C(=O)N(C)[C@H](Cc2ccc(Cl)cc2)CN(C)C(=O)[C@H](Cc2ccccc2)CC(=O)N1Cc1ccc(Cl)cc1Oc1ccc(-c2cnc(CN3CCCC3)n2C)cc1.Cl [Compound 108, (2S, 5S, 8R, 12R)-12-benzyl-1-(4-chloro-2-(4-(1-methyl-2-(pyrrolidin-1-ylmethyl)-1H-imidazol-5-yl)phenoxy)benzyl)-8-(4-chlorobenzyl)-5-(hydroxymethyl)-2,7,10-trimethyl-1,4,7, 10-tetraazacyclotetradecane-3,6,11,14-tetraone]
